# Entries after “also recorded” stand apart in the source; their conditions may differ.
# How the values were obtained:
# STAT5 = STAT5 phosphorylation (flow cytometry) and STAT5 protein (Western blot) in K562 cells; assay type: cell-based; settings: Imatinib 1 μM
# Method: Intracellular STAT5 phosphorylation assays. […] Cells were fixed and permeabilized using Cytofix/Cytoperm kit (BD Pharmingen) and stained with Alexa Fluor® 488-anti-phospho-STAT5 mAb (BD Phosflow) or Alexa Fluor® 488-isotype-matched control to obtain fluorescence minus comparative in each experiment. Analysis was carried on a minimal number of 50,000 events in the viable cell gate. […] (untreated cells p-STAT5 MFI-non treated cells isotype-control MFI)-(drug treated cells p-STAT5 MR-drug treated cells isotype-control MFI). Western blot analysis. For STAT5 protein analysis, K562 cells (2.5×10^5) were lysed in RIPA lysis buffer on ice. […] Proteins were transferred to Hybond N+ filters (Amersham). Membranes were probed with the following antibodies: STAT5 (sc-1656), actin (sc-8432), and goat anti-mouse IgG-HRP (sc-2005) (Santa Cruz Biotechnology Inc.). Antibody binding was detected by the enhanced chemiluminescence ECL+ (Amersham).
# CD34+ CP-CML cells = test: Liquid culture of CD34+ CP-CML cells (fold expansion, viable cells); assay type: cell-based, human; design: viab (%): concentration or dose not given beside the values; settings: for viab (%) / Fold exp: serum-free medium without cytokines; for Fold exp, mean: mean of 7 patients
# Method: Cell culture and proliferation assays. K562 cells (2×10^5) were cultured in 96-well plates, in complete Dulbecco's Modified Eagle medium supplemented with 10% fetal calf serum (Gibco®, Life technologies) alone or with variable concentrations of pioglitazone or troglitazone. […] Eight replicates were used for each set of conditions and results were obtained after three independents experiments. CD34^+ cells from patients in CP-CML at diagnosis or umbilical cord blood were immunoselected (CD34 microBead Kit, Miltenyi Biotec) according to the manufacturer's instructions. […] Ph1^+-CD34^+ cells were cultured in serum free medium (SFM) StemSpan (StemCell Technologies) without growth factors.
# Flow cytometry. […] For all experiment, cell viability was assessed using SYTOX® Blue dead cell stain (Invitrogen Life Technologies).
# STAT5B mRNA = test: STAT5B RT-qPCR in CP-CML cells; assay type: cell-based, human; settings: CP-CML cells after 10 days of liquid culture without cytokines; normalized to GAPDH
# Excerpt: RNA extraction and RT-qPCR analysis.
# [1] = Imatinib plasma levels in three CML patients; assay type: in vivo, human
# CP-CML LTC-ICs = test: LTC-IC assay with limiting dilution analysis; assay type: cell-based, human
# Method: Colony Forming Cell (CFC) and Long Term Culture—Initiating Cell (LTC-IC) assays. […] Cells were scored and collected after 14 day incubation at 37° C. and 5% CO2. After scoring, colonies were washed with PBS and kept frozen in RNAlater® (Invitrogen) for subsequent analysis. […] After five weeks with weekly change of one half medium volume, all cells were transferred in alpha-MEM based methylcellulose medium (GF H4434, Stemcell technologies) to determine the total clonogenic cell content of each LTC. LTC-IC frequencies were determined using the L-Calc software (Stemcell technologies).
# [2] = ACTIM companion study: imatinib trough levels; assay type: in vivo, human; settings: p=ns
# CML patients [3] = test: BCR-ABL/ABL RT-qPCR follow-up of three CML patients given pioglitazone on imatinib; assay type: in vivo, human
# CML patients [4] = test: ACTIM clinical trial: molecular response and safety; assay type: in vivo, human
# Excerpt: BCR-ABL transcript level was monitored every 3 months during the study period. Primary objective was the proportion of patients achieving a confirmed undetectable level of BCR-ABL transcript. Secondary objectives included cumulative incidence of CMR4.5 and safety.
# [5] = system: human cord blood CD34+ cells expressing BCR-ABL; test: CFC assay after lentivector-mediated expression of BCR-ABL in cord blood CD34+ cells; assay type: cell-based; settings: BCR-ABL vs eGFP lentivector; drug added for 48 h prior; p<0.002
# Method: For CFC assays, CD34^+ cells were suspended (1×10^4) in 3 ml of alpha-MEM based methylcellulose medium (GF H4434, Stemcell Technologies). Cells were scored and collected after 14 day incubation at 37° C. and 5% CO2.
# An SIV GAE-SSFV-eGFP vector was used as a control.
# Cells were suspended (1×10^6/ml) in StemSpan (StemCell Technologies, France) supplemented with protamine sulfate (4 μg/ml), SCF (100 ng/ml), Flt-3-L (100 ng/ml), IL-3 (20 ng/ml), and IL-6 (20 ng/ml), in a 96-well plate coated with RetroNectin® (Takara Shuzo Co., Japan). Cell suspensions were incubated for 16 hours. Lentiviral vectors were then added and cell suspensions incubated for 12 hours. Cells were washed twice before being seeded.
# [6] = pioglitazone added to imatinib, 24 evaluable patients
# Method for CP-CML CD34+ cells: CSFE assays. Fresh CD34^+-enriched cells were stained with 2 μM of 5-(and 6-) carboxyfluorescein diacetate succinimidyl diester (CFSE, Invitrogen). […] Cells were harvested at variable time points as indicated, collected in BD Trucount™ tubes for absolute count (BD Biosciences) and labeled with anti-CD45 and anti-CD34. Then, cells were diluted in 1 mL of phosphate-buffered saline (PBS, Invitrogen Life Technologies) containing 2% fetal calf serum (PAA) and stained for viability. All analyses were carried out on a BD FACS Canto2 Flow Cytometer.
smiles,measurement,setting,value
Cc1ccc(NC(=O)c2ccc(CN3CCN(C)CC3)cc2)cc1Nc1nccc(-c2cccnc2)n1 [Imatinib],viable CD34+ cells that never divided or had divided only once,"CP-CML CD34+ cells; Patient 4, vs. 5% for the untreated control",34%
same,effect on cell cycle status / quiescence,CP-CML CD34+ cells; liquid culture without cytokines,induced a selection of insensitive quiescent CML cells
same,action on STAT5 phosphorylation,STAT5,acts rapidly (minutes) by preventing STAT5 phosphorylation
same,viab (%),"CD34+ CP-CML cells; Patient 1, D 3 in culture",0.1%
same,viab (%),"CD34+ CP-CML cells; Patient 1, D 7 in culture",0.10%
same,viab (%),"CD34+ CP-CML cells; Patient 2, D 3 in culture",31.00%
same,viab (%),"CD34+ CP-CML cells; Patient 2, D 7 in culture",29.70%
same,viab (%),"CD34+ CP-CML cells; Patient 3, D 3 in culture",4.10%
same,viab (%),"CD34+ CP-CML cells; Patient 3, D 7 in culture",5.90%
same,viab (%),"CD34+ CP-CML cells; Patient 4, D 3 in culture",86.00%
same,viab (%),"CD34+ CP-CML cells; Patient 4, D 7 in culture",54.00%
same,viab (%),"CD34+ CP-CML cells; Patient 5, D 3 in culture",54.5%
same,viab (%),"CD34+ CP-CML cells; Patient 5, D 7 in culture",56.00%
same,viab (%),"CD34+ CP-CML cells; Patient 6, D 3 in culture",85.00%
same,viab (%),"CD34+ CP-CML cells; Patient 6, D 7 in culture",73.00%
same,viab (%),"CD34+ CP-CML cells; Patient 7, D 3 in culture",84.00%
same,viab (%),"CD34+ CP-CML cells; Patient 7, D 7 in culture",66.00%
same,decrease of STAT5B mRNA levels,STAT5B mRNA,1.5 fold
same,plasma levels,"[1]; Patient 1, imatinib 300-400 mg/day",924 ng/mL
same,plasma levels,"[1]; Patient 2, imatinib 300-400 mg/day",310 ng/mL
same,plasma levels,"[1]; Patient 3, imatinib 400 mg/day",790 ng/mL
same,reduction of the frequency of CP-CML LTC-ICs (in words),CP-CML LTC-ICs; p=0.067 and p=0.02,unable to reduce significantly
CCc1ccc(CCOc2ccc(CC3SC(=O)NC3=O)cc2)nc1 (centres unmarked) [pioglitazone],interaction between imatinib and pioglitazone in term of through level,[2],No interaction; also recorded: lack of interaction
same,duration of CMR(Slog),"CML patients [3]; Patient 1, pioglitazone 30 mg/day added after 5 years of imatinib therapy",56 months
same,duration of CMR(Slog),"CML patients [3]; Patient 2, pioglitazone 30 mg/day added after 6 year of imatinib therapy, then withdrew",12 months
same,time without molecular relapse after stopping imatinib treatment,CML patients [3]; Patient 3,6 months
same,time to CMR(Slog),"CML patients [3]; Patient 3, pioglitazone 45 mg/day added to imatinib",6 months
same,duration of CMR(Slog),"CML patients [3]; Patient 3, pioglitazone 45 mg/day added to imatinib 400 mg/day",28 months
same,Fold exp,"CD34+ CP-CML cells; Patient 1, D 3 in culture",0.75 fold
same,viab (%),"CD34+ CP-CML cells; Patient 1, D 3 in culture",19.00%
same,Fold exp,"CD34+ CP-CML cells; Patient 1, D 7 in culture",0.39 fold
same,viab (%),"CD34+ CP-CML cells; Patient 1, D 7 in culture",9.00%
same,Fold exp,"CD34+ CP-CML cells; Patient 2, D 3 in culture",1.25 fold
same,viab (%),"CD34+ CP-CML cells; Patient 2, D 3 in culture",47.00%
same,Fold exp,"CD34+ CP-CML cells; Patient 2, D 7 in culture",2.96 fold
same,viab (%),"CD34+ CP-CML cells; Patient 2, D 7 in culture",71.00%
same,Fold exp,"CD34+ CP-CML cells; Patient 3, D 3 in culture",0.27 fold
same,viab (%),"CD34+ CP-CML cells; Patient 3, D 3 in culture",9.90%
same,Fold exp,"CD34+ CP-CML cells; Patient 3, D 7 in culture",1.69 fold
same,viab (%),"CD34+ CP-CML cells; Patient 3, D 7 in culture",17.90%
same,Fold exp,"CD34+ CP-CML cells; Patient 4, D 3 in culture",2.02 fold
same,viab (%),"CD34+ CP-CML cells; Patient 4, D 3 in culture",93.00%
same,Fold exp,"CD34+ CP-CML cells; Patient 4, D 7 in culture",1.67 fold
same,viab (%),"CD34+ CP-CML cells; Patient 4, D 7 in culture",54.00%
same,Fold exp,"CD34+ CP-CML cells; Patient 5, D 3 in culture",1.32 fold
same,viab (%),"CD34+ CP-CML cells; Patient 5, D 3 in culture",73.00%
same,Fold exp,"CD34+ CP-CML cells; Patient 5, D 7 in culture",0.93 fold
same,viab (%),"CD34+ CP-CML cells; Patient 5, D 7 in culture",86.00%
same,Fold exp,"CD34+ CP-CML cells; Patient 6, D 3 in culture",1.69 fold
same,viab (%),"CD34+ CP-CML cells; Patient 6, D 3 in culture",88.00%
same,Fold exp,"CD34+ CP-CML cells; Patient 6, D 7 in culture",1.87 fold
same,viab (%),"CD34+ CP-CML cells; Patient 6, D 7 in culture",85.00%
same,Fold exp,"CD34+ CP-CML cells; Patient 7, D 3 in culture",0.86 fold
same,viab (%),"CD34+ CP-CML cells; Patient 7, D 3 in culture",84.00%
same,Fold exp,"CD34+ CP-CML cells; Patient 7, D 7 in culture",1.48 fold
same,viab (%),"CD34+ CP-CML cells; Patient 7, D 7 in culture",33.00%
same,"Fold exp, mean",CD34+ CP-CML cells; D 3 in culture,1.17 fold
same,"Fold exp, mean",CD34+ CP-CML cells; D 7 in culture,1.54 fold
same,patients with a confirmed undetectable level of BCR-ABL transcript,"CML patients [4]; pioglitazone 30 mg/d 2 months then 45 mg/d added to imatinib, 24 evaluable patients",14%
same,discontinuation due to adverse events,CML patients [4]; [6],No patient discontinued due to adverse events
same,main adverse events,CML patients [4]; [6],weight gain and worsening fluid retention in 3 patients
same,one year cumulative incidence of CMR4.5,"CML patients [4]; pioglitazone added to imatinib, control group 27% (p=0.02)",57%
same,decrease of STAT5B mRNA levels,STAT5B mRNA,8.5 fold
same,"degree of reduction in colony forming cells (CFC), greater when BCR-ABL was expressed",[5],1.9 fold
same,reduction of the frequency of CP-CML LTC-ICs,CP-CML LTC-ICs; limiting dilution analysis,2.4 fold

# Reference: patent publication US9623015B2, “Combination of an anti-cancer agent such as a tyrosinekinase inhibitor and a STAT5 antagonist, preferably a thiazolidinedione, for eliminating hematologic cancer stem cells in vivo and for preventing hematologic cancer relapse” (Commissariat à L'Energie Atomique et aux Energies …, priority 2012, dated 2017)
